{"source": "patent US20040244713A1", "about": "“Method for treating animals or masses of water with compositions comprising quinone compounds” (priority 2003, published 2004)", "key": {"[1]": {"tested_on": "Rainbow trout", "assay": "Toxicity test LC50 on fish fauna, Rainbow trout", "format": "in vivo", "description": "(§8) The table below lists the results of the toxicity tests performed on fish fauna and on some phyto- and zooplankton species considered among the possible targets of the claimed method."}, "[2]": {"tested_on": "Eurytemora Affinis", "assay": "Toxicity test LC50 on Eurytemora Affinis", "settings": "in vivo", "description": "as §8"}, "[3]": {"tested_on": "Dreissena Polimorfa Larvae", "assay": "Toxicity test LC50 on Dreissena Polimorfa larvae", "settings": "in vivo", "description": "as §8"}, "[4]": {"tested_on": "Artemia Salina", "assay": "Toxicity test LC50 on Artemia Salina", "settings": "in vivo", "description": "as §8"}, "[5]": {"tested_on": "Eimeria tenella", "assay": "Coccid infection in chicken, Eimeria tenella", "format": "in vivo", "settings": "chickens (Ross males), 250 ppm of MPB in feed, inoculated orally with 50,000 oocysts; fecal count 16 hours before killing; n=6", "experimental": "(§1) The effect of a preparation comprising menadione dimethylpirymidinol bisulfite (MPB) on coccid infection in chicken was assessed.\n(§2) Composition of the preparation (per Kg of final preparation):\n(§3) MPB coated with vegetable hydrogenated fatty acids (1:1 inclusion ratio) 500 g,\n(§4) This preparation was added in the amount of 1 Kg per ton of feed, so that the final concentration of MPB was equal to 250 ppm of MPB (equivalent to approximately 109 ppm of menadione). Since a chicken eats on average 70-80 grams of feed per day, the daily dose of MPB was equal to approximately 17-20 mg/animal per day.\n(§5) The chickens (Ross males) were raised in individual cages for four weeks with a commercial feed in comparison with the same feed integrated with said preparation at the dose of 1 Kg/ton.\n(§6) At the end of the third week, the chickens were weighed and divided into uniform weight groups within each treatment and were orally inoculated (1 ml) respectively with 50,000 oocysts of Eimeria tenella or 100,000 oocysts of E. acervulina. The fecal count of the oocysts was performed (method described in Hodgson J. N. 1970, Exp. Parasitol. 28:99-102) 16 hours before killing the animals.\n(§7) The coccidiostatic effect is confirmed by the score of the lesions six days after inoculation (method described by Johson J. et Al. 1970, Exp. Parasitol. 28:30-36)."}, "[6]": {"assay": "Photodegradability in sunlight and UV light", "format": "physicochemical", "settings": "10-ppm solution in drinking water (pH 6.5-7.5)", "experimental": "In a fully similar manner, the same behaviour is confirmed if one assesses the photodegradability in sunlight and UV light (the radiation test was performed on a 10-ppm solution in drinking water (pH 6.5-7.5)"}, "[7]": {"assay": "Biodegradability OECD 301 A (92/69/EEC C4-A)", "format": "physicochemical", "text": "The degradability of a substance is normally a factor that is impossible to predict on a structural basis. […] On the basis of the available data related to the compounds that are chemically more similar to the derivatives of menadione described here, one could have expected a degradability comprised between the 0% (percentage calculated on the initial mass of product expressed as mg/l) of menadione (2-methyl-1,4-naphthalenedione) and the 17% (assessed after 28 days) of menadione sodium bisulfite (where the calculation was performed by using the OECD301 A guidelines annexed to EEC directive 92/69/EEC C4-A).\nFinally, biodegradability according to the 92/69/EEC C4-A regulation was also assessed."}, "[8]": {"tested_on": "Eimeria acervulina", "assay": "Coccid infection in chicken, Eimeria acervulina", "format": "in vivo", "settings": "chickens (Ross males), 250 ppm of MPB in feed, inoculated orally with 100,000 oocysts; fecal count 16 hours before killing; n=6", "experimental": "as §1, §2, §3, §4, §5, §6, §7"}, "[9]": {"tested_on": "Isochris Galbana", "assay": "Toxicity test LC50 on Isochris Galbana", "format": "cell-based", "description": "as §8"}, "[10]": {"assay": "Hydrolysis test performed in darkness", "format": "physicochemical"}}, "note": "Marks after values point to notes of the source that are not given here."}
{"smiles": "CC1(S(=O)(=O)O)CC(=O)c2ccccc2C1=O.Cc1cc(C)[nH]c(=O)n1", "note": "(stereo not drawn) [MPB, menadione dimethylpirymidinol bisulfite]", "values": [{"measurement": "LC50 Rainbow trout (assessed on 96 h)", "setting": "[1]", "result": 0.4, "unit": "ppm"}, {"measurement": "LC50 Eurytemora Affinis", "setting": "[2]", "result": 5, "unit": "ppm"}, {"measurement": "LC50 Dreissena Polimorfa Larvae", "setting": "[3]", "result": 1, "unit": "ppm"}, {"measurement": "LC50 Artemia Salina", "setting": "[4]", "result": 5, "unit": "ppm"}, {"measurement": "Excretion of oocysts, Eimeria tenella", "setting": "[5]", "result": "0.44 ± 0.05^a ×10^8"}, {"measurement": "Light exp. Total Degr.", "setting": "[6]", "result": 48, "unit": "h"}, {"measurement": "Light exp. ½ life", "setting": "[6]", "result": 10, "unit": "h"}, {"measurement": "degradability compared with that of MSB", "setting": "[7]; 7 days after the beginning of the test", "result": "as much as eight times higher"}, {"measurement": "% biodegr. OECD 301 A", "setting": "[7]; after 7 days", "result": 37, "unit": "%"}, {"measurement": "% biodegr. OECD 301 A", "setting": "[7]; after 14 days", "result": 37, "unit": "%"}, {"measurement": "% biodegr. OECD 301 A", "setting": "[7]; after 28 days", "result": 40, "unit": "%"}, {"measurement": "Excretion of oocysts, Eimeria acervulina", "setting": "[8]", "result": "5.9 ± 0.8^a ×10^8"}, {"measurement": "LC50 Isochris Galbana", "setting": "[9]", "result": 0.5, "unit": "ppm"}, {"measurement": "½ LIFE, hydrolysis", "setting": "[10]; PH 6.8, in darkness", "result": 48, "unit": "h"}, {"measurement": "½ LIFE, hydrolysis", "setting": "[10]; PH 9, in darkness", "result": "<3", "unit": "h"}]}
